In this assay the target is T1, Ubiquitin carboxyl-terminal hydrolase 28 (Homo sapiens) (UniProt Q96RU2).
T1 sequence (whole entry): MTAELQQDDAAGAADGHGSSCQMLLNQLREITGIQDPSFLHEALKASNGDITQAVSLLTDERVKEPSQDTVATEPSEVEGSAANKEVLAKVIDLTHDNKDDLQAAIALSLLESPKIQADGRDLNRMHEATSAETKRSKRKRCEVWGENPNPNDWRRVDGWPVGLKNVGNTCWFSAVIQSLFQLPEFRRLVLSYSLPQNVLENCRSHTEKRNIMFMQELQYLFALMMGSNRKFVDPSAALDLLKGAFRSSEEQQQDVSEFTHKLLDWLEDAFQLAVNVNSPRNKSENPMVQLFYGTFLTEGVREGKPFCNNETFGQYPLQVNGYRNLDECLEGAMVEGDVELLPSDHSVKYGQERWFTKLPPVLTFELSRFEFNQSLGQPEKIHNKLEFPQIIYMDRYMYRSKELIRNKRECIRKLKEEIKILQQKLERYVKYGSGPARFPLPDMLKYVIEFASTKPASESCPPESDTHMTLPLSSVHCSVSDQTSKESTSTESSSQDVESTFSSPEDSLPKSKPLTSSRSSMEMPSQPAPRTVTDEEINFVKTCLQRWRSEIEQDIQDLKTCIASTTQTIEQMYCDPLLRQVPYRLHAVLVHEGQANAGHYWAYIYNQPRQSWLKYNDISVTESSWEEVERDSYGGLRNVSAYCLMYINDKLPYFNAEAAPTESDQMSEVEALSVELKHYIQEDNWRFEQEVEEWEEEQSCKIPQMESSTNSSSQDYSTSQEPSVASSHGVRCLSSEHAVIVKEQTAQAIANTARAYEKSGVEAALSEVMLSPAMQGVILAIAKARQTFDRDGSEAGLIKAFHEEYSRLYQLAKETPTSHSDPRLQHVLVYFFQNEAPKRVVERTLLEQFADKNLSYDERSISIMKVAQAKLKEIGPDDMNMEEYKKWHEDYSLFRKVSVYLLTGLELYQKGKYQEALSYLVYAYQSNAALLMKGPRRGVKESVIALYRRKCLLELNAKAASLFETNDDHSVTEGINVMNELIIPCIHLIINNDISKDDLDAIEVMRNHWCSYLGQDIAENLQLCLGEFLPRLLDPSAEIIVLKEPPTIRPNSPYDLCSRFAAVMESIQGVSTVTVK
Nature of the assay: Inhibition of human USP28 (149 to 707 residues) expressed in Escherichia coli Rosetta 2 (DE3) cells using Ub-Rh110Gly as fluorogenic substrate at 40 uM preincubated for 1 hr followed by substrate addition by plate reader analysis.

Drawing on ChEMBL document CHEMBL5576083, “Structure-Based Design and Synthesis of Covalent Inhibitors for Deubiquitinase and Acetyltransferase ChlaDUB1 of Chlamydia trachomatis” (J Med Chem, 2024), this text covers inhibition for one compound.

Calls of active or inactive are those of the source. No cut-off for these calls is given here.

In the case of `N#Cc1ncc(C(=O)NCc2ccc(C(=O)NC34CC5CC(CC(C5)C3)C4)cc2)cn1`, the inhibition entry was “inactive”.
